In patent US9890175B2, “Taxane compound, and preparation method and use thereof” (JIANGSU TASLY DIYI PHARMACEUTICAL CO., LTD., priority 2013, dated 2018):
Read-outs that look alike come from different tables or passages of the source.

Legend:
[1] = tested on: A2780 ovarian cancer; experiment: MTT proliferation inhibition, A2780; type: cell-based; settings: Homo sapiens, A2780, read-out: Proliferation inhibition rate, A2780 Ovarian cancer
Text: (§1) 1. Cytotoxicity Assay Using Human Tumor Cell Lines
(§2) Paclitaxel was used as the positive drug.

[2] = tested on: Hela cervical cancer; experiment: MTT proliferation inhibition, HeLa; type: cell-based; settings: Homo sapiens, read-out: Proliferation inhibition rate, HeLa Uterin cancer
Text: as §1, §2

[3] = tested on: MCF-7 breast cancer cells; experiment: MTT proliferation inhibition, MCF-7; type: cell-based; settings: Homo sapiens, MCF7, read-out: Proliferation inhibition rate, MCF-7 Breast cancer
Text: as §1, §2

[4] = tested on: NCI-H460 non-small cell lung cancer; experiment: MTT proliferation inhibition, NCI-H460; type: cell-based; settings: Homo sapiens, NCI-H460, read-out: Proliferation inhibition rate, NCI-H460 Non-small cell lung cancer
Text: as §1, §2

[5] = tested on: A375 melanoma; experiment: MTT proliferation inhibition, A375; type: cell-based; settings: Homo sapiens, A-375, read-out: Proliferation inhibition rate, A375 Melanoma
Text: as §1, §2

[6] = tested on: HT-29 colon cancer; experiment: MTT proliferation inhibition, HT-29; type: cell-based; settings: Homo sapiens, HT-29, read-out: Proliferation inhibition rate, HT29 Colon cancer
Text: as §1, §2

[7] = tested on: HL-60 leukemia; experiment: MTT proliferation inhibition, HL-60; type: cell-based; settings: Homo sapiens, HL-60, read-out: Proliferation inhibition rate, HL60 Leukemia
Text: as §1, §2

[8] = tested on: Du145 prostate cancer; experiment: MTT proliferation inhibition, Du145; type: cell-based; settings: Homo sapiens, DU-145, read-out: Proliferation inhibition rate, DU145 Prostate cancer
Text: as §1, §2

[9] = tested on: MDA-MB-436 breast cancer cells; experiment: MTT proliferation inhibition, MDA-MB-436; type: cell-based; settings: Homo sapiens, MDA-MB-436, read-out: Proliferation inhibition rate, MDA-MB-436 Breast cancer
Text: as §1, §2

[10] = tested on: LN-18; experiment: MTT proliferation inhibition, LN-18; type: cell-based; settings: Homo sapiens, LN-18, read-out: Proliferation inhibition rate, LN-18 Gastric canser
Text: as §1, §2

[11] = tested on: BGC-823 gastric cancer; experiment: MTT proliferation inhibition, BGC-823; type: cell-based; settings: Homo sapiens, BGC-823, read-out: Proliferation inhibition rate, BGC-823 Gastric cancer
Text: as §1, §2

[12] = tested on: A549 non-small cell lung cancer; experiment: MTT proliferation inhibition, A549; type: cell-based; settings: Homo sapiens, A549, read-out: Proliferation inhibition rate, A549 Non-small cell lung cancer
Text: as §1, §2

[13] = tested on: B16 melanoma; experiment: MTT proliferation inhibition, B16; type: cell-based; settings: B16, read-out: Proliferation inhibition rate, B16 Melanoma
Text: as §1, §2

[14] = tested on: HCT 116 colon cancer; experiment: MTT proliferation inhibition, HCT 116; type: cell-based; settings: Homo sapiens, HCT-116, read-out: Proliferation inhibition rate, HCT 116 Colon cancer
Text: as §1, §2

[15] = tested on: K562 leukemia; experiment: MTT proliferation inhibition, K562; type: cell-based; settings: Homo sapiens, K562, read-out: Proliferation inhibition rate, K562 Leukemia
Text: as §1, §2

[16] = tested on: LNCaP prostate cancer; experiment: MTT proliferation inhibition, LNCaP; type: cell-based; settings: Homo sapiens, read-out: Proliferation inhibition rate, LNCaP Prostate cancer
Text: as §1, §2

[17] = tested on: breast cancer cell line MCF-7; experiment: IC50 on breast cancer cell line MCF-7; type: cell-based; settings: Homo sapiens, MCF7, 72 h, read-out: MCF-7 (IC50, nM)
Protocol: From the activity evaluation data of the above-mentioned preliminary screen, it can be seen that the series of taxanes derivatives synthesized in the present invention have activity. Afterward, the compounds are investigated to examine their IC50 values on breast cancer cell line MCF-7. […] Experiments for each compound were independently repeated for three times and multiple holes were used in each experiment. The exposure time of drugs was 72 hours.

[18] = Caco-2 cell monolayer membrane transport assay (Papp and recovery); type: in vitro ADME; settings: human, Caco-2, Caco-2, A-B
Text: Caco-2 Cell Monolayer Membrane Transport Assay
(§3) Human-derived colorectal adenocarcinoma cell line Caco-2 cell monolayer model was used to study the bidirectional transport of the target compounds from the apical (AP) side to the basolateral (BL) side and from BL side to AP side. HPLC was used for quantitative analysis to calculate transport parameters, apparent permeability coefficient (Papp) and the efflux ratio.

[19] = Caco-2 bidirectional transport, efflux ratio; settings: human, Caco-2
Text: as §3

[20] = Mean, read-out: Recovery rate in mass, Mean
[21] = Sample-01, read-out: Papp A-B, Sample-01
[22] = Sample-01, read-out: Recovery rate in mass, Sample-01
[23] = Sample-02, read-out: Papp A-B, Sample-02
[24] = Sample-02, read-out: Recovery rate in mass, Sample-02

Compound | inhibition at 1 µM [1] [%] | inhibition at 1 µM [2] [%] | inhibition at 1 µM [3] [%] | inhibition at 1 µM [4] [%] | inhibition at 1 µM [5] [%] | inhibition at 1 µM [6] [%] | inhibition at 1 µM [7] [%] | inhibition at 1 µM [8] [%] | inhibition at 1 µM [9] [%] | inhibition at 1 µM [10] [%] | inhibition at 1 µM [11] [%] | inhibition at 1 µM [12] [%] | inhibition at 1 µM [13] [%] | inhibition at 1 µM [14] [%] | inhibition at 1 µM [15] [%] | inhibition at 1 µM [16] [%] | IC50 [17] [nM] | recovery [18, 20] [%] | Papp A→B [18, 21] [×10⁻⁶ cm/s] | recovery [18, 22] [%] | also measured
CO[C@H]1C(=O)[C@]2(C)[C@@H](OC)C[C@H]3OC[C@@]3(OC(C)=O)[C@H]2[C@H](OC(=O)c2ccccc2)[C@]23OC(=O)O[C@H]2[C@H](OC(=O)[C@H](O)[C@@H](NC(=O)N(C)C)c2ccccc2)C(C)=C1C3(C)C [PCMI-03] | 95.1 | 99.4 | 95.3 | 85.3 | 88.6 | 88.5 | 95.7 | 85 | 80.1 | 95.3 | 92.3 | 68.6 | 78.2 | 58.3 | 93.6 | 82.6 | 2.89 ± 0.1 | 61.7 | 3.45 | 65.1 | Papp A→B ([18]; Mean, read-out: Papp A-B, Mean): 3.67 ×10⁻⁶ cm/s; Papp A→B [18, 23]: 3.89 ×10⁻⁶ cm/s; recovery [18, 24]: 58.2%; Papp A→B [19]: 2.97 ×10⁻⁶ cm/s; Papp B→A [19]: 28.6 ×10⁻⁶ cm/s; efflux ratio [19]: 9.62
COC(=O)O[C@H]1C[C@H]2OC[C@@]2(OC(C)=O)[C@H]2[C@H](OC(=O)c3ccccc3)[C@]34OC(=O)O[C@H]3[C@H](OC(=O)[C@H](O)[C@@H](NC(=O)OC(C)(C)C)c3ccccc3)C(C)=C([C@@H](OC)C(=O)[C@]12C)C4(C)C [PCMI-17] | 96.6 | 101 | 93.1 | 89.2 | 94.9 | 88.5 | 97.3 | 90.7 | 85.1 | 95.9 | 95.1 | 80.3 | 82.3 | 69.6 | 96.5 | 86.7 | 3.84 ± 0.08 | 88.7 | 4.7 | 104 | Papp A→B [18, 23]: 3.16 ×10⁻⁶ cm/s; recovery [18, 24]: 73.9%; Papp A→B [19]: 2.4 ×10⁻⁶ cm/s; Papp B→A [19]: 5.74 ×10⁻⁶ cm/s; efflux ratio [19]: 2.39
CO[C@H]1C[C@H]2OC[C@@]2(OC(C)=O)[C@H]2[C@H](OC(=O)c3ccccc3)[C@]34OC(=O)O[C@H]3[C@H](OC(=O)[C@H](O)[C@@H](NC(=O)OC(C)(C)C)c3ccccn3)C(C)=C([C@@H](OC(=O)N(C)C)C(=O)[C@]12C)C4(C)C [PCMI-09] | 95.6 | 101 | 89.8 | 85.8 | 96.9 | 87.8 | 98.5 | 90.3 | 81.3 | 95 | 94.9 | 75.8 | 81.7 | 65.5 | 92.6 | 86.2 | 14.31 ± 0.12 | 76.5 | 5.78 | 70.4 | Papp A→B [18, 23]: 3.59 ×10⁻⁶ cm/s; recovery [18, 24]: 82.6%; Papp A→B [19]: 3.56 ×10⁻⁶ cm/s; Papp B→A [19]: 29 ×10⁻⁶ cm/s; efflux ratio [19]: 8.14
CO[C@H]1C[C@H]2OC[C@@]2(OC(C)=O)[C@H]2[C@H](OC(=O)c3ccccc3)[C@]34OC(=O)O[C@H]3[C@H](OC(=O)[C@H](O)[C@H](CC(C)C)NC(=O)OC(C)(C)C)C(C)=C([C@@H](OC(=O)N(C)C)C(=O)[C@]12C)C4(C)C [PCMI-10] | 95 | 99.9 | 85.9 | 81 | 94.2 | 86.2 | 97.5 | 88 | 77.3 | 93.7 | 91.2 | 70.5 | 71.4 | 65.6 | 90.6 | 85.9 | 6.44 ± 0.18 | 37.3 | 1.25 | 34 | Papp A→B [18, 23]: 0.89 ×10⁻⁶ cm/s; recovery [18, 24]: 40.5%
COC(=O)O[C@H]1C(=O)[C@]2(C)[C@@H](OC)C[C@H]3OC[C@@]3(OC(C)=O)[C@H]2[C@H](OC(=O)c2ccccc2)[C@]23OC(=O)O[C@H]2[C@H](OC(=O)[C@H](O)[C@@H](NC(=O)OC(C)(C)C)c2ccccc2)C(C)=C1C3(C)C [PCMI-12] | 94.3 | 100 | 81.8 | 82.3 | 92 | 85.4 | 97.2 | 86.7 | 81.4 | 93.4 | 93 | 73.6 | 75.9 | 66.6 | 91.2 | 86.3 | 3.24 ± 0.04 | 27.8 to 39.5 | < 1.36 | 27.8 to 29.1 | Papp A→B ([18]; Mean, read-out: Papp A-B, Mean): < 1.43 ×10⁻⁶ cm/s; Papp A→B [18, 23]: < 1.43 ×10⁻⁶ cm/s; recovery [18, 24]: 38.2 to 39.5%
CO[C@H]1C(=O)[C@]2(C)[C@@H](OC)C[C@H]3OC[C@@]3(OC(C)=O)[C@H]2[C@H](OC(=O)c2ccccc2)[C@]23OC(=O)O[C@H]2[C@H](OC(=O)[C@H](O)[C@@H](NC(=O)c2ccccc2)c2ccccc2)C(C)=C1C3(C)C [PCMI-02] | 94.7 | 98.2 | 93.5 | 82.2 | 89.8 | 89 | 95.9 | 84.7 | 82.6 | 96.6 | 94.2 | 79.6 | 84.1 | 66.4 | 94.7 | 83.7 | 6.93 ± 0.12 | 50.8 | 1.5 | 44.1 | Papp A→B [18, 23]: 1.47 ×10⁻⁶ cm/s; recovery [18, 24]: 57.4%
CO[C@H]1C(=O)[C@@]2(C)[C@H]([C@H](OC(=O)c3ccccc3)[C@]34OC(=O)O[C@H]3[C@H](OC(=O)[C@H](O)[C@@H](NC(=O)OC(C)(C)C)c3ccccc3)C(C)=C1C4(C)C)[C@]1(OC(C)=O)CO[C@@H]1C[C@@H]2O [PCMI-06] | 96 | 99.9 | 86.3 | 84.7 | 94.4 | 87.3 | 97.7 | 89.1 | 77.8 | 94.6 | 93.6 | 75.5 | 80.7 | 67.1 | 93.3 | 83.6 | 16.24 ± 0.08 | 112 | 1.31 | 128 | Papp A→B ([18]; Mean, read-out: Papp A-B, Mean): 1.22 ×10⁻⁶ cm/s; Papp A→B [18, 23]: 1.13 ×10⁻⁶ cm/s; recovery [18, 24]: 96.6%
